Key:
[1] = tested on: pigweed, palmer; test: Test E preemergence; type: in vivo, Amaranthus palmeri; settings: 21 days, scale 0 to 100
Excerpt: Seeds of plant species selected from bermudagrass (Cynodon dactylon), Surinam grass (Brachiaria decumbens), crabgrass, large (large crabgrass, Digitaria sanguinalis), crabgrass, naked (naked crabgrass, Digitaria nuda), foxtail, green (green foxtail, Setaria viridis), johnsongrass (Sorghum halepense), kochia (Kochia scoparia), morningglory (pitted morningglory, Ipomoea lacunosa), nutsedge, purple (purple nutsedge, Cyperus rotundus), ragweed (common ragweed, Ambrosia elation), mustard, black (black mustard, Brassica nigra), guineagrass (Panicum maximum), dallisgrass (Paspalum dilatatum), barnyardgrass (Echinochloa crus-galli), sandbur (southern sandbur, Cenchrus echinatus), sowthistle (common sowthistle, Sonchus oleraceous), ryegrass, Italian (Italian ryegrass, Lolium multiflorum), signalgrass (broadleaf signalgrass, Brachiaria platyphylla), dayflower, VA (Virginia (VA) dayflower, Commelina virginica), bluegrass (annual bluegrass, Poa annua), quackgrass (Elytrigia repens), mallow (common mallow, Malva sylvestris), buckwheat, wild (wild buckwheat, Polygonum convolvulus), leafy spurge (Euphorbia esula), common chickweed (Stellaria media), wild poinsettia (Euphorbia heterophylla), pigweed, palmer (palmer pigweed, Amaranthus palmeri), and pigweed (redroot pigweed, Amaranthus retroflexus) were planted into a blend of loam soil and sand and treated preemergence with test chemicals formulated in a non-phytotoxic solvent mixture which included a surfactant.
Treated plants and controls were maintained in a greenhouse for 21 days, after which time all species were compared to controls and visually evaluated. Plant response ratings, summarized in Table E, are based on a scale of 0 to 100 where 0 is no effect and 100 is complete control. A dash (-) response means no test result.

[2] = tested on: chamomile; test: Test D preemergence; type: in vivo, Matricaria inodora; settings: scale 0 to 100
Excerpt: Seeds of plant species selected from bluegrass (annual bluegrass, Poa annua), blackgrass (Alopecurus myosuroides), canarygrass (littleseed canarygrass, Phalaris minor), chickweed (common chickweed, Stellaria media), galium (catchweed bedstraw, Galium aparine), bromegrass, downy (downy bromegrass, Bromus tectorum), field poppy (Papaver rhoeas), field violet (Viola arvensis), foxtail, green (green foxtail, Setaria viridis), deadnettle (henbit deadnettle, Lamium amplexicaule), ryegrass, Italian (Italian ryegrass, Lolium multiflorum), kochia (Kochia scoparia), lambsquarters (Chenopodium album), oilseed rape (Brassica napus), pigweed (redroot pigweed, Amaranthus retroflexus), chamomile (scentless chamomile, Matricaria inodora), speedwell (bird's-eye speedwell, Veronica persica), barley, spring (spring barley, Hordeum vulgare), wheat, spring (spring wheat, Triticum aestivum), buckwheat, wild (wild buckwheat, Polygonum convolvulus), mustard, wild (wild mustard, Sinapis arvensis), oat, wild (wild oat, Avena fatua), radish, wild (wild radish, Raphanus raphanistrum), windgrass (Apera spica-venti), Russian thistle (Salsola kali), barley, winter (winter barley, Hordeum vulgare), and wheat, winter (winter wheat, Triticum aestivum) were planted into a silt loam soil and treated preemergence with test chemicals formulated in a non-phytotoxic solvent mixture which included a surfactant.
At the same time, these species were planted in pots containing Redi-Earth® planting medium (Scotts Company, 14111 Scottslawn Road, Marysville, Ohio 43041) comprising spaghnum peat moss, vermiculite, wetting agent and starter nutrients and treated with postemergence applications of the test chemicals formulated in the same manner. Plants ranged in height from 2 to 18 cm (1- to 4-leaf stage). Treated plants and controls were maintained in a controlled growth environment for 14 to 21 days after which time all species were compared to controls and visually evaluated. Plant response ratings, summarized in Table D, are based on a scale of 0 to 100 where 0 is no effect and 100 is complete control. A dash (-) response means no test result.

[3] = tested on: cocklebur; test: Test F preemergence; type: in vivo, Xanthium strumarium; settings: scale 0 to 100
Excerpt: Seeds of plant species selected from corn (Zea mays), soybean (Glycine max), velvetleaf (Abutilon theophrasti), lambsquarters (Chenopodium album), wild poinsettia (Euphorbia heterophylla), pigweed, palmer (palmer pigweed, Amaranthus palmeri), common waterhemp (Amaranthus rudis), surinam grass (Brachiaria decumbens), large crabgrass (Digitaria sanguinalis), crabgrass, Brazil (Brazilian crabgrass, Digitaria horizontalis), fall panicum (Panicum dichotomiflorum), giant foxtail (Setaria faberii), green foxtail (Setaria viridis), goosegrass (Eleusine indica), johnsongrass (Sorghum halepense), common ragweed (Ambrosia elation), barnyardgrass (Echinochloa crus-galli), southern sandbur (Cenchrus echinatus), arrowleaf sida (Sida rhombifolia), Italian ryegrass (Lolium multiflorum), dayflower, VA (Virginia (VA) dayflower, Commelina virginica), field bindweed (Convolvulus arvensis), cocklebur (common cocklebur, Xanthium strumarium), morningglory (Ipomoea coccinea), nightshade (eastern black nightshade, Solanum ptycanthum), kochia (Kochia scoparia), yellow nutsedge (Cyperus esculentus), and hairy beggarticks (Bidens pilosa), were planted into a silt loam soil and treated preemergence with test chemicals formulated in a non-phytotoxic solvent mixture which included a surfactant.
At the same time, plants from these crop and weed species and also horseweed (Canada horseweed, Conyza canadensis), smartweed (ladysthumb smartweed, Polygonum persicaria), waterhemp_RES1, (ALS & Triazine resistant common waterhemp, Amaranthus rudis), and waterhemp_RES2, (ALS & HPPD resistant common waterhemp, Amaranthus rudis) were treated with postemergence applications of test chemicals formulated in the same manner. Plants ranged in height from 2 to 18 cm for postemergence treatments (1- to 4-leaf stage). Treated plants and controls were maintained in a greenhouse for 14 to 21 days, after which time all species were compared to controls and visually evaluated. Plant response ratings, summarized in Table F, are based on a scale of 0 to 100 where 0 is no effect and 100 is complete control. […]

CCc1cc(C(=O)NCC(F)(F)F)nn1Cc1ccnc(C(F)(F)F)c1 [Compound 78, 5-ethyl-N-(2,2,2-trifluoroethyl)-1-[[(2-trifluoromethyl)-4-pyridinyl]methyl]-1H-pyrazole-3-carboxamide]
Plant response rating, Pigweed, Palmer ([1]; 16 g ai/ha): 40
Plant response rating, Pigweed, Palmer ([1]; 31 g ai/ha): 80
Plant response rating, Pigweed, Palmer ([1]; 62 g ai/ha): 100
Plant response rating, Pigweed, Palmer ([1]; 125 g ai/ha): 100
Plant response rating, Pigweed, Palmer ([1]; 250 g ai/ha): 100

CCCc1cc(C(=O)NCC(F)(F)F)nn1Cc1cc(C(F)(F)F)nn1C [Compound 138]
Plant response rating, Chamomile ([2]; 31 g ai/ha): 0
Plant response rating, Chamomile ([2]; 62 g ai/ha): 95
Plant response rating, Chamomile ([2]; 125 g ai/ha): 100
Plant response rating, Chamomile ([2]; 250 g ai/ha): 100

CCOc1cc(C(=O)NC(C)C)nn1Cc1ccnc(C(F)(F)F)c1 [Compound 188]
Plant response rating, Chamomile ([2]; 31 g ai/ha): 100
Plant response rating, Chamomile ([2]; 62 g ai/ha): 100
Plant response rating, Chamomile ([2]; 125 g ai/ha): 100
Plant response rating, Chamomile ([2]; 250 g ai/ha): 100

CCOc1cc(C(=O)NC2CC2)nn1Cc1ccnc(C(F)(F)F)c1 [Compound 189]
Plant response rating, Chamomile ([2]; 31 g ai/ha): 65
Plant response rating, Chamomile ([2]; 62 g ai/ha): 100
Plant response rating, Chamomile ([2]; 125 g ai/ha): 100
Plant response rating, Chamomile ([2]; 250 g ai/ha): 100

CCc1cc(C(=O)NC2CC2)nn1Cc1ccnc(OCC(F)(F)F)c1 [Compound 200]
Plant response rating, Cocklebur ([3]; 16 g ai/ha): 20
Plant response rating, Cocklebur ([3]; 62 g ai/ha): 30
Plant response rating, Cocklebur ([3]; 250 g ai/ha): 30

From patent publication US20150105252A1, “SUBSTITUTED PYRAZOLES AS HERBICIDES” (E I DU PONT DE NEMOURS AND COMPANY, priority 2013, published 2015)
